Legend:
Assay type in all cases: in vivo
corn (Zea mays) = test: Test C pre/postemergence; details: Postemergence
Summary of the method: (§1)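 We sprayed seeded pots preemergence and 2–18 cm seedlings postemergence with test chemicals in a non-phytotoxic solvent mixture including surfactant. Greenhouse plants were visually compared with untreated controls at 12 to 14 days and scored 0 (no effect) to 100 (complete control).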

[1] = test system: chickweed (Stellaria media); test: Test C postemergence
Summary of the method: as §1

[2] = test system: barnyardgrass (Echinochloa crus-galli); test: Test E flooded paddy water application; details: Flood, 21 days, scale 0 to 100 (0 no effect, 100 complete control)
Summary of the method: (§2)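 Response scored visually on a 0–100 scale (100 = complete control) at 21 days against untreated pots. Treatment was into paddy water 3 cm deep over silt loam, with plants at the 2.0–2.5-leaf stage, grown under 16-h light at 29.5/26.7 °C day/night.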

[3] = test system: bearded (brdd.) sprangletop (Leptochloa fusca ssp. fascicularis); test: Test E flooded paddy water application; details: Flood, 21 days, scale 0 to 100 (0 no effect, 100 complete control)
Summary of the method: as §2

[4] = test system: ducksalad (Heteranthera limosa); test: Test E flooded paddy water application; details: Flood, 21 days, scale 0 to 100 (0 no effect, 100 complete control)
Summary of the method: as §2

[5] = test system: early watergrass (Echinochloa oryzoides); test: Test E flooded paddy water application; details: Flood, 21 days, scale 0 to 100 (0 no effect, 100 complete control)
Summary of the method: as §2

[6] = test system: junglerice (Echinochloa colona); test: Test E flooded paddy water application; details: Flood, 21 days, scale 0 to 100 (0 no effect, 100 complete control)
Summary of the method: as §2

[7] = test system: purple redstem (Ammannia coccinea); test: Test E flooded paddy water application; details: Flood, 21 days, scale 0 to 100 (0 no effect, 100 complete control)
Summary of the method: as §2

[8] = test system: rice flatsedge (Cyperus iria); test: Test E flooded paddy water application; details: Flood, 21 days, scale 0 to 100 (0 no effect, 100 complete control)
Summary of the method: as §2

[9] = test system: transplanted rice seedlings (Oryza sativa cv. ‘Japonica-M202’); test: Test E flooded paddy water application; details: Flood, 21 days, scale 0 to 100 (0 no effect, 100 complete control)
Summary of the method: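 Greenhouse pots of Tama silt loam with weeds and rice at 2.0–2.5-leaf stage, flooded to 3 cm; compounds applied directly into paddy water, depth maintained. Visual rating versus untreated controls after 21 days, 0 (no effect) to 100 (complete control); 29.5/26.7 °C, 16-h photoperiod.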

[10] = test system: water seeded rice seedlings (Oryza sativa cv. ‘Japonica-M202’); test: Test E flooded paddy water application; details: Flood, 21 days, scale 0 to 100 (0 no effect, 100 complete control)
Summary of the method: as §2

SMILES: Nc1nc(-c2ccc(Cl)cc2)nc(C(=O)O)c1Br [Compound 88]
- Plant response rating (scale of 0 to 100), Corn (corn (Zea mays); 31 g ai/ha): 0
- Plant response rating (scale of 0 to 100), Corn (corn (Zea mays); 62 g ai/ha): 0
- Plant response rating, Corn (corn (Zea mays); 250 g ai/ha, scale 0 to 100): 30
- Plant response rating (scale of 0 to 100), Chickweed ([1]; 31 g ai/ha): 80
- Plant response rating (scale of 0 to 100), Chickweed ([1]; 62 g ai/ha): 100
- Chickweed plant response rating ([1]; 125 g ai/ha, scale 0 to 100 (0 no effect, 100 complete control)): 100
- Plant response rating, Chickweed ([1]; 250 g ai/ha, scale 0 to 100): 100
- Barnyardgrass plant response rating ([2]; 32 g ai/ha): 0
- Barnyardgrass plant response rating ([2]; 64 g ai/ha): 0
- Barnyardgrass plant response rating ([2]; 125 g ai/ha): 0
- Barnyardgrass plant response rating ([2]; 250 g ai/ha): 0
- Plant response rating, Barnyardgrass ([2]; 16 g ai/ha): 0
- Sprangletop, Brdd. plant response rating ([3]; 32 g ai/ha): 0
- Sprangletop, Brdd. plant response rating ([3]; 64 g ai/ha): 0
- Sprangletop, Brdd. plant response rating ([3]; 125 g ai/ha): 85
- Sprangletop, Brdd. plant response rating ([3]; 250 g ai/ha): 95
- Plant response rating, Sprangletop, Brdd. ([3]; 16 g ai/ha): 0
- Ducksalad plant response rating ([4]; 32 g ai/ha): 100
- Ducksalad plant response rating ([4]; 64 g ai/ha): 100
- Ducksalad plant response rating ([4]; 125 g ai/ha): 100
- Ducksalad plant response rating ([4]; 250 g ai/ha): 100
- Plant response rating, Ducksalad ([4]; 16 g ai/ha): 95
- Watergrass, Early plant response rating ([5]; 32 g ai/ha): 0
- Watergrass, Early plant response rating ([5]; 64 g ai/ha): 0
- Watergrass, Early plant response rating ([5]; 125 g ai/ha): 0
- Watergrass, Early plant response rating ([5]; 250 g ai/ha): 50
- Plant response rating, Watergrass, Early ([5]; 16 g ai/ha): 0
- Junglerice plant response rating ([6]; 32 g ai/ha): 0
- Junglerice plant response rating ([6]; 64 g ai/ha): 0
- Junglerice plant response rating ([6]; 125 g ai/ha): 0
- Junglerice plant response rating ([6]; 250 g ai/ha): 90
- Plant response rating, Junglerice ([6]; 16 g ai/ha): 0
- Redstem plant response rating ([7]; 32 g ai/ha): 0
- Redstem plant response rating ([7]; 64 g ai/ha): 0
- Redstem plant response rating ([7]; 125 g ai/ha): 0
- Redstem plant response rating ([7]; 250 g ai/ha): 65
- Plant response rating, Redstem ([7]; 16 g ai/ha): 0
- Flatsedge, Rice plant response rating ([8]; 32 g ai/ha): 85
- Flatsedge, Rice plant response rating ([8]; 64 g ai/ha): 100
- Flatsedge, Rice plant response rating ([8]; 125 g ai/ha): 100
- Flatsedge, Rice plant response rating ([8]; 250 g ai/ha): 100
- Plant response rating, Flatsedge, Rice ([8]; 16 g ai/ha): 50
- Rice, Transplanted plant response rating ([9]; 32 g ai/ha): 0
- Rice, Transplanted plant response rating ([9]; 64 g ai/ha): 0
- Rice, Transplanted plant response rating ([9]; 125 g ai/ha): 0
- Rice, Transplanted plant response rating ([9]; 250 g ai/ha): 0
- Plant response rating, Rice, Transplanted ([9]; 16 g ai/ha): 0
- Rice, Water Seeded plant response rating ([10]; 32 g ai/ha): 0
- Rice, Water Seeded plant response rating ([10]; 64 g ai/ha): 0
- Rice, Water Seeded plant response rating ([10]; 125 g ai/ha): 0
- Rice, Water Seeded plant response rating ([10]; 250 g ai/ha): 0
- Plant response rating, Rice, Water Seeded ([10]; 16 g ai/ha): 0
